# Experimental data as given in patent publication US6846931B2, “Organic acid salt of amlodipine” (CJ Corp, priority 2002, dated 2005).
# Tests used:
# [1] = Test for light stability, aqueous solution exposed to daylight (HPLC content); type: physicochemical; conditions: for color change: 4 weeks at 25° C., daylight; for content (HPLC): stored for 4 weeks at 25° C. daylight
# Procedure: The resulting aqueous solutions were stored at 25° C. for 4 weeks while being exposed to daylight. A measurement was made of the contents of the salts with resort to HPLC under the same conditions as in the chemical stability test.
# [2] = Test for hygroscopicity (water content at different humidity levels); type: physicochemical; conditions: for water content: 25° C.; for change of water content: one week under various humidity conditions
# [3] = Chemical stability in solid state, accelerated test at 60° C. (HPLC content); type: physicochemical; conditions: for changes in the content: accelerated test at 60° C.; for content (HPLC): solid state, 60° C.
# Excerpt: 1. HPLC Analysis Conditions:
# Detector: UV Absorbance (at 237 nm)
# Column: Octadesyl silica gel C18 (4.6 mm×150mm, 5 μm)
# Mobile Phase: Potassium dihydrogenphosphate monobasic (0.03M): methanol=4:6 (v/v)
# [4] = Chemical stability in aqueous state, 25° C., 4 weeks, complete darkness (HPLC); type: physicochemical; conditions: distilled water
# Procedure: The resulting aqueous solutions were stored at 25° C. for 4 weeks in complete darkness, after which a measurement was made of the contents of the salts with resort to HPLC under the same conditions as in the solid state.
# physchem = conditions: 37 °C, pH 5, aqueous buffer
compound,measurement,setting,value
"CCOC(=O)C1=C(COCCN)NC(C)=C(C(=O)OC)[C@@H]1c1ccccc1Cl [(S)-(−)-PyroGlu, Amlodipine (S)-(−)-Pyroglutamate]",color change,[1],no color change
same,content (HPLC),[1],98.5%
same,water content,"[2]; 25% RH, 1 week",0.26%
same,water content,"[2]; 60% RH, 1 week",0.3%
same,water content,"[2]; 75% RH, 1 week",0.31%
same,water content,"[2]; 90% RH, 1 week",0.32%
same,water content,[2]; Initial,0.3%
same,change of water content,[2],kept its initial water content without great fluctuation
same,changes in the content,[3],virtually no changes in the content
same,content (HPLC),[3]; 1 week,99.6%
same,content (HPLC),[3]; initial,99.6%
same,decomposition products and content change,[4],neither decomposition products nor content change is found
"CCOC(=O)C1=C(COCCN)NC(C)=C(C(=O)OC)C1c1ccccc1Cl (stereo not drawn) [Besylate, Amlodipine Besylate]",solubility,physchem,3150 µg/mL
same,color change,[1],turned yellow from white
same,content (HPLC),[1],82.5%
same,water content,"[2]; 25% RH, 1 week",0.10%
same,water content,"[2]; 60% RH, 1 week",0.09%
same,water content,"[2]; 75% RH, 1 week",0.15%
same,water content,"[2]; 90% RH, 1 week",0.17%
same,water content,[2]; Initial,0.14%
same,change of water content,[2],kept its initial water content without great fluctuation
same,changes in the content,[3],virtually no changes in the content
same,content (HPLC),[3]; 1 week,99.6%
same,content (HPLC),[3]; 2 weeks,99.4%
same,content (HPLC),[3]; initial,99.6%
same,decomposition products and content change,[4],neither decomposition products nor content change is found
"CCOC(=O)C1=C(COCCN)NC(C)=C(C(=O)OC)C1c1ccccc1Cl.Cc1ccc(S(=O)(=O)O)cc1 (stereo not drawn) [Tosylate, Amlodipine para-Toluenesulfonate]",content (HPLC),[1],72.0%
